Converted amounts (≈) assume the structure as drawn. Where two headings read alike, the source gives them in different places.
Columns and labels:
post-irradiated tumors = details: cited from earlier work
[1] = test system: PI3 kinase (e.g., PI3K-delta); details: smoking mice in vivo; cited from earlier work
[2] = test system: PI3 kinase (e.g., PI3K-delta); details: in vitro; cited from earlier work
[3] = test system: non-small-cell lung cancer, melanoma, and renal-cell cancer; details: clinical trial with a total of 296 patients; cited from earlier work
[4] = Solubility of Compound 1 in acetonitrile/water during controlled crystallization; type: physicochemical
Experimental: An appropriate amount of acetonitrile/water were added to bring the solution to 80/20 v/v acetonitrile/water at 20 L/kg of Compound 1. The slurry was agitated and heated to 75° C. until all the Compound 1 was dissolved. The clear solution was polished filtered with a Zapcap filter (0.45 μm). The solution was put back into the reactor and cool down to 65° C.
The mixture was held under agitation at 22° C. for 2 hrs after the end of water addition.
20 L/kg of 80/20 v/v acetonitrile/water was added to Compound 1 solid charged into a reactor. The slurry was agitated and heated to 75° C. until all Compound 1 was dissolved. The clear solution was polish filtered with a Zapcap filter (0.45 μm). The solution was put back into the reactor and cooled down to 65° C.

[5] = Kinetic solubility after 30 min in water and in 0.1M HCl; type: physicochemical; details: thermodynamic from solid, free base, 30 min, read-out: 30 min Kinetic solubility (pH), free base
Source text: See tables below for the summarized results.

In the case of `c1cc(CN2CCCNCCNCCCNCC2)ccc1CN1CCCNCCNCCCNCC1` [AMD3100], the “tumor vasculogenesis and tumor regrowth” value (post-irradiated tumors) is listed as “blocked”.

In the case of `Cn1c(=O)c2[nH]cnc2n(C)c1=O` [Theophylline, theophylline], the “histone deacetylase-2 and corticosteroid sensitivity” value [1] is given as “increases” and the “histone deacetylase-2 and corticosteroid sensitivity” value [2] is given as “increases”.

In the case of “nivolumab: fully human IgG4 monoclonal antibody which specifically blocks PD1”, the “response in non-small-cell lung cancer, melanoma, and renal-cell cancer” value [3] is listed as “complete or partial responses”.

Work on `C[C@H](NC(=O)c1c(N)nn2cccnc12)c1cc2cccc(C#Cc3cnn(C)c3)c2c(=O)n1-c1ccccc1` [Compound 1, (S)-2-amino-N-(1-(8-((1-methyl-1H-pyrazol-4-yl)ethynyl)-1-oxo-2-phenyl-1,2-dihydroisoquinolin-3-yl)ethyl)pyrazolo[1,5-a]pyrimidine-3-carboxamide] yielded a solubility ([4]; aqueous with cosolvent or surfactant or cyclodextrin, 40/60 v/v acetonitrile/water, 22° C.) of about 3000 µg/mL (≈ 5.68 mM), a solubility ([4]; organic solvent or mixture, 80/20 v/v acetonitrile/water, 22° C.) of about 18000 µg/mL (≈ 34.1 mM) and a solubility ([4]; organic solvent or mixture, 80/20 v/v acetonitrile/water, 65° C.) of about 50000 µg/mL (≈ 94.6 mM). It also gave a solubility kinetic at 30 min ([5]; 0.1M HCl, pH 1.5, simulated gastric fluid, in 0.1M HCl, pH 1.5 and 1.3) of 10 µg/mL (≈ 0.0189 mM) and a solubility kinetic at 30 min ([5]; water, pH 7.1, water, in water (footnote *), pH 7.1 and 6.8) of 10 µg/mL (≈ 0.0189 mM).

— US12384792B2, “Solid forms of isoquinolinones, and process of making, composition comprising, and methods of using the same” (Twelve Therapeutics, Inc., priority 2015, dated 2025)
